The values that follow are results of earlier work, collected in patent US20170001953A1, “FUMARATE COMPOUNDS, PHARMACEUTICAL COMPOSITIONS THEREOF, AND METHODS OF USE” (priority 2015, published 2017).

For the compound `COC(=O)/C=C/C(=O)OC` [DMF, dimethylfumarate], the aqueous solubility result is “poor”.
